Experimental data: article PMC10439230 (Scientific Reports, 2023)

How the values were obtained:
[1] = test system: A549 (lung adenocarcinoma); experiment: Cytotoxic activity assay (MTT); assay type: cell-based, human; details: for IC50: Homo sapiens, A549, 48 h exposure, MTT, read-out: Cell lines, IC50 (μM) A549; for Selectivity Index (SI) values A549: SI = IC50 normal cell (MRC-5)/ IC50 cancer cell
From the text: (§1) The synthetic compounds were screened for their cytotoxic activity using standard MTT or XTT methods[30] against a panel of nine human cancer cell lines and one normal cell line, including MDA-MB-231 (triple-negative breast cancer), T-47D (hormone-dependent breast cancer), HepG2 (hepatocellular carcinoma), A549 (lung adenocarcinoma), H69AR (multidrug-resistant small cell lung carcinoma), HuCCA-1 (cholangiocarcinoma derived from a patient), HeLa (cervical carcinoma), and two leukemia cell lines, HL-60 (acute promyelocytic leukemia) and MOLT-3 (T cell acute lymphoblastic leukemia). MRC-5 normal embryonic lung fibroblast cell line was used to represent normal cells. Chemotherapeutic drugs, doxorubicin and etoposide, were used as positive controls.
(§2) The cells were seeded into 96-well plates (100 µL for adherent cells and 75 µL for suspended cells) at a density of 5000–20,000 cells per well, depending on their growth rates. Adherent and suspended cells were then allowed to grow at 37 °C with 95% humidity and 5% CO2 for 24 h and 30 min, respectively. The cytotoxicity assay was initiated by adding an equal volume of cell culture medium containing tested compound at predetermined concentrations. Following 48 h of exposure, cell viability was determined using MTT assay for adherent cells[51],[52]or XTT assay for suspeended cells. Briefly, for adherent cells, 100 µL of the MTT reagent was added to each well, and the microtiter plates were further incubated for 2.5–4 h. The medium was subsequently replaced with 100 µL of DMSO to dissolve the purple formazan before the absorbance at 550 nm was measured using a microplate reader (a SpectraMax Plus 384) with a reference wavelength of 650 nm. For suspended cells, 75 µL of the XTT reagent was added to each well, and the cells were further incubated for 4 h. Afterwards, the absorbance of orange formazan at 492 nm was measured with a reference wavelength of 690 nm using a microplate reader.

[2] = test system: H69AR (multidrug-resistant small cell lung carcinoma); experiment: Cytotoxic activity assay (MTT); assay type: cell-based, human; details: for IC50: Homo sapiens, H69AR, 48 h exposure, MTT, read-out: Cell lines, IC50 (μM) H69AR; for Selectivity Index (SI) values H69AR: SI = IC50 normal cell (MRC-5)/ IC50 cancer cell
From the text: as §1, §2

[3] = test system: HeLa (cervical carcinoma); experiment: Cytotoxic activity assay (MTT); assay type: cell-based, human; details: for IC50: Homo sapiens, 48 h exposure, MTT, read-out: Cell lines, IC50 (μM) HeLa; for Selectivity Index (SI) values HeLa: SI = IC50 normal cell (MRC-5)/ IC50 cancer cell
From the text: as §1, §2

[4] = test system: HepG2 (hepatocellular carcinoma); experiment: Cytotoxic activity assay (MTT); assay type: cell-based, human; details: for IC50: Homo sapiens, HepG2, 48 h exposure, MTT, read-out: Cell lines, IC50 (μM) HepG2; for Selectivity Index (SI) values HepG2: SI = IC50 normal cell (MRC-5)/ IC50 cancer cell
From the text: as §1, §2

[5] = test system: HuCCA-1 (cholangiocarcinoma derived from a patient); experiment: Cytotoxic activity assay (MTT); assay type: cell-based, human; details: for IC50: Homo sapiens, HuCC-A1, 48 h exposure, MTT, read-out: Cell lines, IC50 (μM) HuCCA-1; for Selectivity Index (SI) values HuCCA-1: SI = IC50 normal cell (MRC-5)/ IC50 cancer cell
From the text: as §1, §2

[6] = test system: MDA-MB-231 (triple-negative breast cancer); experiment: Cytotoxic activity assay (MTT); assay type: cell-based, human; details: for IC50: Homo sapiens, MDA-MB-231, 48 h exposure, MTT, read-out: Cell lines, IC50 (μM) MDA-MB-231; for Selectivity Index (SI) values MDA-MB-231: SI = IC50 normal cell (MRC-5)/ IC50 cancer cell
From the text: as §1, §2

[7] = test system: T-47D (hormone-dependent breast cancer); experiment: Cytotoxic activity assay (MTT); assay type: cell-based, human; details: for IC50: Homo sapiens, T47D, 48 h exposure, MTT, read-out: Cell lines, IC50 (μM) T47-D; for Selectivity Index (SI) values T47-D: SI = IC50 normal cell (MRC-5)/ IC50 cancer cell
From the text: as §1, §2

[8] = test system: HL-60 (acute promyelocytic leukemia); experiment: Cytotoxic activity assay (XTT); assay type: cell-based, human; details: for IC50: Homo sapiens, HL-60, 48 h exposure, XTT, read-out: Cell lines, IC50 (μM) HL-60; for Selectivity Index (SI) values HL-60: SI = IC50 normal cell (MRC-5)/ IC50 cancer cell
From the text: as §1, §2

[9] = test system: MOLT-3 (T cell acute lymphoblastic leukemia); experiment: Cytotoxic activity assay (XTT); assay type: cell-based, human; details: for IC50: Homo sapiens, MOLT-3, 48 h exposure, XTT, read-out: Cell lines, IC50 (μM) MOLT-3; for Selectivity Index (SI) values MOLT-3: SI = IC50 normal cell (MRC-5)/ IC50 cancer cell
From the text: as §1, §2

[10] = test system: MRC-5 normal embryonic lung fibroblast cell line; experiment: Cytotoxic activity assay (MTT), normal cells; assay type: cell-based; details: Homo sapiens, MRC5, 48 h exposure, read-out: Cell lines, IC50 (μM) MRC-5
From the text: as §1, §2

Row | SMILES | IC50 [1] [µM] | Selectivity Index (SI) values A549 [1] | IC50 [2] [µM] | Selectivity Index (SI) values H69AR [2] | IC50 [3] [µM] | Selectivity Index (SI) values HeLa [3] | IC50 [4] [µM] | Selectivity Index (SI) values HepG2 [4] | IC50 [5] [µM] | Selectivity Index (SI) values HuCCA-1 [5] | IC50 [6] [µM] | Selectivity Index (SI) values MDA-MB-231 [6] | IC50 [7] [µM] | Selectivity Index (SI) values T47-D [7] | IC50 [8] [µM] | Selectivity Index (SI) values HL-60 [8] | IC50 [9] [µM] | Selectivity Index (SI) values MOLT-3 [9] | IC50 [10] [µM]
1 | C=C1CC[C@H]2C(C)(C)CCC[C@]2(C)[C@H]1CC/C(C)=C/C(=O)Nc1ccccc1 [Compound 4e, (E)-3-Methyl-N-phenyl-5-((1S,4aS,8aS)-5,5,8a-trimethyl-2-methylene-decahydronaphthalen-1-yl)pent-2-enamide] | 46.9 ± 1.28 | 2.8 | > 120 | 1.0 | 98.11 ± 0.08 | 1.3 | > 120 | 1.0 | > 120 | 1.0 | > 120 | 1.0 | > 120 | 1.0 | 60.6 ± 4.97 | 2.2 | 25.9 ± 1.88 | 5.1 | > 120
2 | C=C1CC[C@H]2C(C)(C)CCC[C@]2(C)[C@H]1CC/C(C)=C/C(=O)N1CCCCC1 [Compound 4n, (E)-3-Methyl-1-(piperidin-1-yl)-5-((1S,4aS,8aS)-5,5,8a-trimethyl-2-methylenedecahydronaphthalen-1-yl)pent-2-en-1-one] | 41.7 ± 1.43 | 0.9 | 52.31 ± 0.42 | 0.7 | 38.91 ± 0.13 | 1.0 | 32.2 ± 1.37 | 1.2 | 41.25 ± 0.19 | 0.9 | 33.9 ± 1.93 | 1.1 | 73 ± 3.31 | 0.5 | 20.5 ± 0.5 | 1.9 | 21 ± 0.32 | 1.8 | 38.4 ± 1.2
3 | C=C1CC[C@H]2C(C)(C)CCC[C@]2(C)[C@H]1CC/C(C)=C/C(=O)NCc1ccccn1 [Compound 4g, (E)-3-Methyl-N-(pyridin-2-ylmethyl)-5-((1S,4aS,8aS)-5,5,8a-trimethyl-2-methylenedecahydronaphthalen-1-yl)pent-2-enamide] | 38.2 ± 0.49 | 1.2 | 92.7 ± 1.18 | 0.5 | 46.7 ± 1.03 | 1.0 | 41.7 ± 1.46 | 1.1 | 46.2 ± 0.6 | 1.0 | 35.1 ± 0.98 | 1.3 | 55.1 ± 2.8 | 0.8 | 22.7 ± 0.36 | 2.0 | 20.9 ± 0.99 | 2.1 | 44.8 ± 1.62
4 | C=C1CC[C@H]2C(C)(C)CCC[C@]2(C)[C@H]1CC/C(C)=C/C(=O)NO [Compound 4j, (E)-N-Hydroxy-3-methyl-5-((1S,4aS,8aS)-5,5,8a-trimethyl-2-methylene-decahydronaphthalen-1-yl)pent-2-enamide] | > 120 | 1.0 | > 120 | 1.0 | > 120 | 1.0 | > 120 | 1.0 | > 120 | 1.0 | > 120 | 1.0 | > 120 | 1.0 | > 120 | 1.0 | > 120 | 1.0 | > 120
5 | C=C1CC[C@H]2C(C)(C)CCC[C@]2(C)[C@H]1CC/C(C)=C/C(=O)N(C)O [Compound 4p, (E)-N-Hydroxy-N,3-dimethyl-5-((1S,4aS,8aS)-5,5,8a-trimethyl-2-methylenedecahydronaphthalen-1-yl)pent-2-enamide] | 61.4 ± 2.16 | 1.1 | 96.67 ± 0.08 | 0.7 | 33.6 ± 0.54 | 2.1 | 64.6 ± 0.76 | 1.1 | 58.6 ± 1.2 | 1.2 | 24.5 ± 0.61 | 2.8 | 35.7 ± 1.01 | 2.0 | 6.81 ± 1.99 | 10.2 | 3.72 ± 0.26 | 18.8 | 69.8 ± 1.24
6 | C=C1CC[C@H]2C(C)(C)CCC[C@]2(C)[C@H]1CC/C(C)=C/C(=O)NCC(=O)OC [Compound 4q, Methyl ((E)-3-methyl-5-((1S,4aS,8aS)-5,5,8a-trimethyl-2-methylenedeca-hydronaphthalen-1-yl)pent-2-enoyl)glycinate] | 43.8 ± 3.08 | 1.5 | 61.4 ± 2.03 | 1.1 | 39.1 ± 0.78 | 1.7 | 73.89 ± 0.3 | 0.9 | 81.1 ± 2.42 | 0.8 | 46.2 ± 1.89 | 1.4 | 71.3 ± 2.07 | 0.9 | 26 ± 0.55 | 2.5 | 14.9 ± 0.32 | 4.4 | 65.29 ± 0.11
7 | C=C1CC[C@H]2C(C)(C)CCC[C@]2(C)[C@H]1CC/C(C)=C/C(=O)N(C)OC [Compound 4o, (E)-N-Methoxy-N,3-dimethyl-5-((1S,4aS,8aS)-5,5,8a-trimethyl-2-methylene-decahydronaphthalen-1-yl)pent-2-enamide] | 82.4 ± 0.99 | 0.6 | 115.1 ± 0.64 | 0.4 | 52.86 ± 0.02 | 0.9 | 57.3 ± 1.82 | 0.8 | 54.3 ± 1.18 | 0.9 | 38.8 ± 0.44 | 1.2 | 46.4 ± 1.73 | 1.0 | 27.9 ± 1.99 | 1.7 | 29.8 ± 1.89 | 1.6 | 47.2 ± 0.96
8 | C=C1CC[C@H]2C(C)(C)CCC[C@]2(C)[C@H]1CC/C(C)=C/C(=O)NCCc1c[nH]c2ccccc12 [Compound 4h, (E)-N-(2-(1H-Indol-3-yl)ethyl)-3-methyl-5-((1S,4aS,8aS)-5,5,8a-trimethyl-2-methylenedecahydronaphthalen-1-yl)pent-2-enamide] | 41.4 ± 2.48 | 1.2 | 71.5 ± 2.47 | 0.7 | 20.7 ± 0.4 | 2.3 | 40.5 ± 2.25 | 1.2 | 42.4 ± 0.5 | 1.1 | 23.5 ± 0.36 | 2.1 | > 120 | 0.4 | 16.8 ± 0.61 | 2.9 | 17.1 ± 0.57 | 2.8 | 48.2 ± 1.06
